Key:
[1] = target: T1, BRM (Homo sapiens, UniProt P51531); test: ATPase catalytic activity assay (ADP-Glo), BRM; type: biochemical; conditions: Table 10; for Ratio (BRG1 IC50 (μM) divided by BRM IC50 (μM)): ATPase assay, selectivity BRG1/BRM; for IC50: ATPase catalytic activity assay (ADP-Glo)
T1 construct: made in house; host or cells: High Five insect cells
Procedure, shortened: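 Reaction holds 30 nM BRM, 20 nM salmon sperm DNA and 400 μM ATP in 20 mM Tris pH 8, 20 mM MgCl2, 50 mM NaCl, 0.1% Tween-20, 1 mM DTT. Incubated 1 h at room temperature. ADP formed is detected by ADP-Glo luminescence.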

[2] = target: T2, BRG-1 (Homo sapiens, UniProt P51532); test: ATPase catalytic activity assay (ADP-Glo), BRG-1; type: biochemical; conditions: Table 10, read-out: BRG1 IC50
T2 construct: made in house; host or cells: High Five insect cells
Procedure, shortened: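 Signal reflects ADP produced by the enzyme, quantified as luminescence after unused ATP is cleared and ADP is reconverted to ATP for the luciferase reaction; both steps run at room temperature, 40 and 60 min respectively.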

T1 sequence (P51531 whole entry): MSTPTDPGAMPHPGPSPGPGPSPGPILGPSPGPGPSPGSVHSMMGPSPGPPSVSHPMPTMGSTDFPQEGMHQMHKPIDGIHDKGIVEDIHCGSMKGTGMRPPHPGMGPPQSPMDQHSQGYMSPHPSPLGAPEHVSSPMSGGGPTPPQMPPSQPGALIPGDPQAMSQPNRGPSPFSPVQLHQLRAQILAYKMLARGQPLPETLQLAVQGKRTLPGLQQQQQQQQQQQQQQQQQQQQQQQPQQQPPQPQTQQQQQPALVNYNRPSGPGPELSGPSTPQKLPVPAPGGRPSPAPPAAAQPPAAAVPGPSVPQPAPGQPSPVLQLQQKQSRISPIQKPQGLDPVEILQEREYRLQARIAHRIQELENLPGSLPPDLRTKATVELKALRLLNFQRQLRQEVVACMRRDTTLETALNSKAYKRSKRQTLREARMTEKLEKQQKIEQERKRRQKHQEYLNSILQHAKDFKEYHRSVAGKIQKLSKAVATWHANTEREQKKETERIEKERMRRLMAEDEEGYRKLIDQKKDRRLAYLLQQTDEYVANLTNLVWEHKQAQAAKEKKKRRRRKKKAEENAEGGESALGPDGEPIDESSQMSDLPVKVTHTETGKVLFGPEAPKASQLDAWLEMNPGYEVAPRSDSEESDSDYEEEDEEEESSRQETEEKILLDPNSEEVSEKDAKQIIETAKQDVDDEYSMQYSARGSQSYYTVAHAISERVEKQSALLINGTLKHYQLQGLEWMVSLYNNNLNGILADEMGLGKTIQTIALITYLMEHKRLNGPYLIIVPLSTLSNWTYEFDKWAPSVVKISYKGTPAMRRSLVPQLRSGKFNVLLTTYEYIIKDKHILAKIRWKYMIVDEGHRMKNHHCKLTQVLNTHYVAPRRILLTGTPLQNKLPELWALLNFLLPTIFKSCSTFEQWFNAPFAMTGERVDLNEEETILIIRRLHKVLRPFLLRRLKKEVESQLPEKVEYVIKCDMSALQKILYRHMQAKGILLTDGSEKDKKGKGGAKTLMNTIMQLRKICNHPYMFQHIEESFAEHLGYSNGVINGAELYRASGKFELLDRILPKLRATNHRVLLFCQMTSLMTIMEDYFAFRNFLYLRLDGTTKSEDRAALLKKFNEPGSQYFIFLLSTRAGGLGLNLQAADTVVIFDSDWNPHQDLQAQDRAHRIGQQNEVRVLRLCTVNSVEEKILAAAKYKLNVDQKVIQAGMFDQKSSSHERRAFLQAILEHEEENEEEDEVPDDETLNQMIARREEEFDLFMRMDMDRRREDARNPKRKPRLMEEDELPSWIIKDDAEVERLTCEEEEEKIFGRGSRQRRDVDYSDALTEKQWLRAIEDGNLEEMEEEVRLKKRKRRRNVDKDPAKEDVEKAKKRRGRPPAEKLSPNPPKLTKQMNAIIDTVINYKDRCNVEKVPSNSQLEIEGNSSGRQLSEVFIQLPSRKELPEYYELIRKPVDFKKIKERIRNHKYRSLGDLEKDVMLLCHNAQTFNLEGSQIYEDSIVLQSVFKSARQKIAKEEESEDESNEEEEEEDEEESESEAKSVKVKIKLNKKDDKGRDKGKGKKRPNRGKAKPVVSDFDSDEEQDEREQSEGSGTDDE
T2 sequence (P51532 whole entry): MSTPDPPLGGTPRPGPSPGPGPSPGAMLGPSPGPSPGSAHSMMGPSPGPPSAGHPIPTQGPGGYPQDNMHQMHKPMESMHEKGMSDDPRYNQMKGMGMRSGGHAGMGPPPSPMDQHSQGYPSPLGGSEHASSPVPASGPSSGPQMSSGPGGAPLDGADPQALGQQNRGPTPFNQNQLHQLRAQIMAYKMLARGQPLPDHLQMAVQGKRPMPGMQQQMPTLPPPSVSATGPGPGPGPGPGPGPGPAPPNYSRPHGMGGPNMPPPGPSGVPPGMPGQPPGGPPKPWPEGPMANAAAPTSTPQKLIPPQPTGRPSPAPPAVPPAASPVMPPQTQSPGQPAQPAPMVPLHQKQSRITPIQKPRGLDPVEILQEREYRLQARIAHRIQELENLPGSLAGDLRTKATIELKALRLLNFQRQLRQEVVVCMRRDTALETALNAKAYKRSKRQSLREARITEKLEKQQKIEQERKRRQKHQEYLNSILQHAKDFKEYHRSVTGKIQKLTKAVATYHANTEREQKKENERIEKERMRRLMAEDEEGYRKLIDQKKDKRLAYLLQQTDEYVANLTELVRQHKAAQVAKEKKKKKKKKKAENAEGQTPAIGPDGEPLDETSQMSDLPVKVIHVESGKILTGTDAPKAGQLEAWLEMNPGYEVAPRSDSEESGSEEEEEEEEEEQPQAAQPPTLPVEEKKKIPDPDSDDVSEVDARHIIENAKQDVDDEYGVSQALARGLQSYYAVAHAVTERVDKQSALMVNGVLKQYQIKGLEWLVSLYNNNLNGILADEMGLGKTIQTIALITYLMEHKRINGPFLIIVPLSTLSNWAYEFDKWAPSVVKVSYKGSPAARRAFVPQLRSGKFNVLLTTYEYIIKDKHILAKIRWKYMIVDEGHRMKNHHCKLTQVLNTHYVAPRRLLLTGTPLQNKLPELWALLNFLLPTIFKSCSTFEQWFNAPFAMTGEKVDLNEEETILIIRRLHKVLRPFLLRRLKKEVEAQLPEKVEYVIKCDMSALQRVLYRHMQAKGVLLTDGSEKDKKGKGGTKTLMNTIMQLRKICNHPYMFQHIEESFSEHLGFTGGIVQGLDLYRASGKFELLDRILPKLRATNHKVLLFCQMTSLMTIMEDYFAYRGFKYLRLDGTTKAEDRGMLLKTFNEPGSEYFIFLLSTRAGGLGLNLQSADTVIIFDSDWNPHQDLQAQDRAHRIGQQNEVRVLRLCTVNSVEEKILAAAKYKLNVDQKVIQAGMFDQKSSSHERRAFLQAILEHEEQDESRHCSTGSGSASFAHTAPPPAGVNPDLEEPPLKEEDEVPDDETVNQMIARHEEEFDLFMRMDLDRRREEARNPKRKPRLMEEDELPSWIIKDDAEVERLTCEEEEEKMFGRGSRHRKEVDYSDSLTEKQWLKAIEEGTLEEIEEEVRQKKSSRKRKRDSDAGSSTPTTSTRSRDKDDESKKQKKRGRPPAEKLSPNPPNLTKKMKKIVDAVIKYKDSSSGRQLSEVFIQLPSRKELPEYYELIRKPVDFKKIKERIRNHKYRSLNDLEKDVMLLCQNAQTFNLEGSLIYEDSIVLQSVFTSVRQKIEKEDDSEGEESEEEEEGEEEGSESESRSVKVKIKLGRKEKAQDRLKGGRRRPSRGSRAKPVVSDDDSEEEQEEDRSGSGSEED

SMILES | Ratio (BRG1 IC50 (μM) divided by BRM IC50 (μM)) [1] | IC50 [1] [nM] | IC50 [2] [nM]
C#Cc1ccc2c(n1)N(c1ccc3cnc(CNC(=O)c4cc(F)c5c(c4)S(=O)(=O)[C@@H](F)CCO5)cc3n1)CCO2 [Compound 110] | 15.35 | 3.9 | 69.4
O=C(NCc1cc2nc(-c3cccc(N4CCC4)n3)ccc2cn1)c1cc(F)c2c(c1)S(=O)(=O)[C@@H](F)COC2 [Compound 111] | 19.81 | 3.9 | 79.1
O=C(NCc1cc2nc(N3CCOc4cc(N5CC[C@H](F)[C@@H](F)C5)cnc43)ccc2cn1)c1cc(Cl)c2c(c1)S(=O)(=O)[C@@H](F)COC2 [Compound 112] | 14.50 | 3.9 | 57.2
O=C(NCc1cc2nc(N3CCOc4c(OCC5CC5)ccnc43)ccc2cn1)c1cc(F)c2c(c1)S(=O)(=O)[C@@H](F)CCO2 [Compound 113] | 21.12 | 4 | 83.9
O=C(NCc1cc2nc(-c3cccc(C4CC4)n3)ccc2cn1)c1cc(F)c2c(c1)S(=O)(=O)[C@@H](F)COC2 [Compound 114] | 29.13 | 4 | 118
C[C@@H]1C[C@H]1c1cnc2c(c1)OCCN2c1ccc2cnc(CNC(=O)c3cc(F)c4c(c3)S(=O)(=O)[C@@H](F)CCO4)cc2n1 [Compound 115] | 22.17 | 4 | 105
O=C(NCc1cc2nc(N3CCOc4cc([C@H]5CC5(F)F)cnc43)ccc2cn1)c1cc(F)c2c(c1)S(=O)(=O)[C@@H](F)COC2 [Compound 116] | 12.04 | 4 | 48.3
O=C(NCc1cc2nc(-c3cccc(N4CCC4)n3)ccc2cn1)c1cc(F)c2c(c1)S(=O)(=O)[C@@H](F)CCO2 [Compound 117] | 21.61 | 4 | 87.1
O=C(NCc1cc2cc(-c3cccc(C4CC4)n3)ccc2cn1)c1cc(F)c2c(c1)S(=O)(=O)[C@@H](F)COC2 [Compound 118] | 19.47 | 4 | 63
O=C(NCc1cc2nc(N3CCOc4ccc(N5CCC(F)(F)C5)nc43)ccc2cn1)c1cc(F)c2c(c1)S(=O)(=O)[C@@H](F)CCO2 [Compound 119] | 10.33 | 4.1 | 42.2
Cc1ccc(-c2ccc3cnc(CNC(=O)c4cc(F)c5c(c4)S(=O)(=O)[C@@H](F)CCO5)cc3n2)c(OC(F)F)n1 [Compound 120] | 24.03 | 4.1 | 98.3
O=C(NCc1cc2nc(N3CCOc4cc(N5C[C@@H](F)[C@H](F)C5)cnc43)ccc2cn1)c1cc(Cl)c2c(c1)S(=O)(=O)[C@@H](F)COC2 [Compound 121] | 13.86 | 4.1 | 56.7
COc1nc(C(F)F)ccc1-c1ccc2cnc([C@H](C)NC(=O)c3ccc4c(c3)S(=O)(=O)[C@@H](F)CCOC4)cc2n1 [Compound 122] | 10.93 | 4.2 | 45.9
O=C(NCc1cc2nc(N3CCOc4ccc([C@@H]5C[C@H]5C(F)F)nc43)ccc2cn1)c1cc(F)c2c(c1)S(=O)(=O)[C@@H](F)CCO2 [Compound 123] | 12.84 | 4.2 | 50.6
O=C(NCc1cc2nc(N3CCOc4cc(N5C[C@@H](F)[C@@H](F)C5)cnc43)ccc2cn1)c1cc(F)c2c(c1)S(=O)(=O)[C@@H](F)CCO2 [Compound 124] | 15.93 | 4.3 | 74.9
O=C(NCc1cc2nc(N3CCOc4ccc([C@H]5C[C@@H]5C(F)F)nc43)ccc2cn1)c1cc(F)c2c(c1)S(=O)(=O)[C@@H](F)CCO2 [Compound 125] | 19.09 | 4.3 | 81.5
CCOc1ccnc2c1OCCN2c1ccc2cnc(CNC(=O)c3cc(F)c4c(c3)S(=O)(=O)[C@@H](F)CCO4)cc2n1 [Compound 129] | 18.60 | 4.5 | 111
O=C(NCc1cc2nc(N3CCOc4cc(C56CC(C5)C6)cnc43)ccc2cn1)c1cc(F)c2c(c1)S(=O)(=O)[C@@H](F)CCO2 [Compound 130] | 15.94 | 4.5 | 71.1
COc1nc(C(F)F)ccc1-c1ccc2cnc(CNC(=O)c3cc(C)c4c(c3)S(=O)(=O)[C@@H](F)COC4)cc2n1 [Compound 131] | 17.91 | 4.5 | 70.8

SMILES | Ratio (BRG1 IC50 (μM) divided by BRM IC50 (μM)) [1] | IC50 [1] [nM] | IC50 [2] [nM]
O=C(NCc1cc2nc(N3CCOc4ccc([C@H]5C[C@@H]5F)nc43)ccc2cn1)c1cc(F)c2c(c1)S(=O)(=O)[C@@H](F)COC2 [Compound 132] | 17.90 | 4.5 | 77.2
COc1cnc2c(c1)CCCN2c1ccc2cnc(CNC(=O)c3cc(F)c4c(c3)S(=O)(=O)[C@@H](F)CCO4)cc2n1 [Compound 133] | 18.45 | 4.5 | 94.2
C[C@@H]1CN(c2cccc(-c3ccc4cnc(CNC(=O)c5cc(F)c6c(c5)S(=O)(=O)[C@@H](F)CO[C@@H]6C)cc4n3)n2)C[C@H](C)O1 [Compound 134] | 20.63 | 4.6 | 98.6
[2H]C([2H])([2H])Oc1nc(C(F)F)ccc1-c1ccc2cnc(CNC(=O)c3cc(F)c4c(c3)S(=O)(=O)[C@@H](F)CCO4)cc2n1 [Compound 135] | 23.88 | 4.6 | 110
COc1nc(C(F)F)ccc1-c1ccc2cnc(CNC(=O)c3cc(F)c4c(c3)S(=O)(=O)[C@@H](F)CCO4)c(F)c2n1 [Compound 136] | 13.12 | 4.6 | 74.9
COc1nc(C(F)F)ccc1-c1ccc2cnc(CNC(=O)c3cc(F)c4c(c3)S(=O)(=O)[C@@H](F)COC4)cc2c1 [Compound 137] | 21.45 | 4.7 | 99.7
O=C(NCc1cc2nc(N3CCOc4cc(N5C[C@H](F)[C@@H](F)C5)cnc43)ccc2cn1)c1cc(F)c2c(c1)S(=O)(=O)[C@@H](F)CCO2 [Compound 138] | 18.95 | 4.7 | 88.2
O=C(NCc1cc2nc(N3CCOc4cc(N5CC(F)C5)cnc43)ccc2cn1)c1cc(F)c2c(c1)S(=O)(=O)[C@@H](F)CCO2 [Compound 139] | 24.09 | 4.7 | 147
[2H]C1([2H])OC[C@H](F)S(=O)(=O)c2cc(C(=O)NCc3cc4nc(N5CCOc6ccc(C(F)F)nc65)ccc4cn3)cc(F)c21 [Compound 140] | 17.66 | 4.7 | 83.1
O=C(NCc1cc2cc(N3CCOc4cc(C5CC5)cnc43)ccc2cn1)c1cc(F)c2c(c1)S(=O)(=O)[C@@H](F)CCO2 [Compound 141] | 16.19 | 4.7 | 76.3
C[C@H]1[C@H](F)CN1c1cnc2c(c1)OCCN2c1ccc2cnc(CNC(=O)c3cc(F)c4c(c3)S(=O)(=O)[C@@H](F)CCO4)cc2n1 [Compound 142] | 19.04 | 4.7 | 89.1
COc1nc(-c2ccc3cnc(CNC(=O)c4cc(F)c5c(c4)S(=O)(=O)[C@@H](F)CCO5)cc3n2)ccc1C(F)F [Compound 143] | 21.43 | 4.7 | 98.5
COc1ccc(-c2ccc3cnc(CNC(=O)c4cc(F)c5c(c4)S(=O)(=O)[C@@H](F)CCO5)cc3n2)nc1[C@@H]1CC1(F)F [Compound 144] | 25.02 | 4.8 | 109
O=C(NCc1cc2nc(N3CCOc4cc(CC(F)F)cnc43)ccc2cn1)c1cc(F)c2c(c1)S(=O)(=O)[C@@H](F)CCO2 [Compound 145] | 16.05 | 4.8 | 77.2
O=C(NCc1cc2nc(N3CCOc4cc(C56CC(C5)C6)cnc43)ccc2cn1)c1cc(F)c2c(c1)S(=O)(=O)[C@@H](F)COC2 [Compound 146] | 15.71 | 4.8 | 72.9
COCc1ccnc2c1OCCN2c1ccc2cnc(CNC(=O)c3cc(F)c4c(c3)S(=O)(=O)[C@@H](F)CCO4)cc2n1 [Compound 147] | 11.98 | 4.8 | 58.1
C[C@@H]1CN(c2cccc(-c3ccc4cnc(CNC(=O)c5cc(Cl)c6c(c5)S(=O)(=O)[C@@H](F)CCO6)cc4n3)n2)C[C@H](C)O1 [Compound 148, (R)-9-chloro-N-((2-(6-((2S,6R)-2,6-dimethylmorpholino)pyridin-2-yl)-1,6-naphthyridin-7-yl)methyl)-4-fluoro-3,4-dihydro-2H-benzo[b][1,4]oxathiepine-7-carboxamide 5,5-dioxide] | 17.59 | 4.9 | 82.6
COCCN(C)c1cnc2c(c1)CCCN2c1ccc2cnc(CNC(=O)c3cc(F)c4c(c3)S(=O)(=O)[C@@H](F)CCO4)cc2n1 [Compound 149] | 13.78 | 4.9 | 67.7
COc1nc(C(C)(F)F)ccc1-c1ccc2cnc(CNC(=O)c3cc(F)c4c(c3)S(=O)(=O)[C@@H](F)CCO4)cc2n1 [Compound 150] | 21.42 | 4.9 | 119

Reference: patent publication US12139487B2, “Compounds and uses thereof” (Foghorn Therapeutics Inc., priority 2022, dated 2024)
